The results in this text go back to ChEMBL document CHEMBL3871299, “Design and synthesis of new piperidone grafted acetylcholinesterase inhibitors” (Bioorg Med Chem Lett, 2017).

Data set [1] in a line: Cytotoxicity against human SH-SY5Y cells assessed as reduction in cell viability at 0.2 to 40 uM measured after 24 hrs by MTT assay. In kind it is toxicity, cell-based. In general terms: Tetrazolium assays rely on reduction of a dye to a coloured formazan, in cell work by metabolically active cells.
Data set [2] deals with T1, Acetylcholinesterase (Homo sapiens, UniProt P22303). In words: Inhibition of acetylcholinesterase (unknown origin) assessed as reduction in formation of 5-thio-2-nitrobenzoate from acetylthiocholine iodide at 5 ug/ml preincubated for 15 mins followed by substrate addition measured after 30 mins by Ellman's method. A general note: DTNB colorimetry detects thiols as they appear.
T1 sequence (P22303 whole entry): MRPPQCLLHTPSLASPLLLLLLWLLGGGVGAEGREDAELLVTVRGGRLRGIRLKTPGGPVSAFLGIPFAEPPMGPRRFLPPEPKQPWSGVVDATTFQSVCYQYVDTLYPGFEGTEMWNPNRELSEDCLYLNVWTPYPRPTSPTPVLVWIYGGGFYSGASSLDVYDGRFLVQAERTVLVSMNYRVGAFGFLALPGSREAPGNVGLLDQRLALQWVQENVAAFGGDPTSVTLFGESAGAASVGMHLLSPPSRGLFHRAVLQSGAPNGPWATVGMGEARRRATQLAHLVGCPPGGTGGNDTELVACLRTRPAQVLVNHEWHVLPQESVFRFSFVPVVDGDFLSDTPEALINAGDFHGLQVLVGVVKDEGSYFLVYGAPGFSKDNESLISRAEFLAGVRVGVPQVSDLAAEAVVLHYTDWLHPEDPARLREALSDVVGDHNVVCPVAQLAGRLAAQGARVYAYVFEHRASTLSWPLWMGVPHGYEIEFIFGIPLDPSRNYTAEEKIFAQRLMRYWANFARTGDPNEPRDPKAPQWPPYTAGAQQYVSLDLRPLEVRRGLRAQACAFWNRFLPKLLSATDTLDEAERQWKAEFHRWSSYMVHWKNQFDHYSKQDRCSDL

The target in data set [3] is T1, Acetylcholinesterase. In words: Inhibition of acetylcholinesterase (unknown origin) assessed as reduction in formation of 5-thio-2-nitrobenzoate from acetylthiocholine iodide preincubated for 15 mins followed by substrate addition measured after 30 mins by Ellman's method.

What is called inhibition is the share of the control response that was lost under treatment. A word on the IC50: it is the point on the concentration scale where inhibition reaches its midpoint. `O=C1/C(=C/c2ccc(Br)cc2)CN(Cc2ccc3ccccc3c2)C/C1=C\c1ccc(Br)cc1`: in data set [1], the Activity result is listed as “Non-Toxic”. In addition, at Acetylcholinesterase [2], the inhibition came out at 67.2%. The IC50 at Acetylcholinesterase [3] stood at 830 nM. Take `Cc1ccc(/C=C2\CN(Cc3cccc(C)c3)C/C(=C\c3ccc(C)cc3)C2=O)cc1`: the inhibition at Acetylcholinesterase [2] was determined as 59.8%. Also, on Acetylcholinesterase [3], the IC50 amounted to 3220 nM. Turning to `Clc1ccc(C=C2CNCC3=C2N=C2SC=C(c4ccccc4)N2C3c2ccc(Cl)cc2)cc1` (configuration not stated), the inhibition on Acetylcholinesterase [2] stood at 41.6%.

On to `Cc1ccc(C2=CSC3=NC4=C(CNCC4=Cc4ccccc4)C(c4ccccc4)N23)cc1` (configuration not stated), for which the inhibition at Acetylcholinesterase [2] was found to be 42.1%.

On to `Clc1ccc(C=C2CNCC3=C2N=C2SC=C(c4ccc(Br)cc4)N2C3c2ccc(Cl)cc2)cc1` (configuration not stated), for which the inhibition on Acetylcholinesterase [2] was found to be 41.6%. As for `C(=C1CNCC2=C1N=C1SC=C(c3ccccc3)N1C2c1ccccc1)c1ccccc1` (configuration not stated), at Acetylcholinesterase [2], the inhibition was 48.6%. As to `Cc1cccc(CN2C/C(=C\c3ccc(Br)cc3)C(=O)/C(=C/c3ccc(Br)cc3)C2)c1`, at Acetylcholinesterase [2], the inhibition turned out to be 45.7%. Regarding `Brc1ccc(C=C2CNCC3=C2N=C2SC=C(c4ccccc4)N2C3c2ccc(Br)cc2)cc1` (configuration not stated), the inhibition on Acetylcholinesterase [2] stood at 66.7%. Moreover, the IC50 at Acetylcholinesterase [3] came out at 1480 nM. Consider `Cc1cccc(CN2C/C(=C\c3ccc(Cl)cc3)C(=O)/C(=C/c3ccc(Cl)cc3)C2)c1`, for which, at Acetylcholinesterase [2], the inhibition was 41.6%.

On to `Clc1ccc(C=C2CNCC3=C2N=C2SC=C(c4ccc5ccccc5c4)N2C3c2ccc(Cl)cc2)cc1` (configuration not stated), for which the inhibition on Acetylcholinesterase [2] turned out to be 62.8%. The IC50 at Acetylcholinesterase [3] was determined as 1350 nM.

With `Cc1ccc(C=C2CNCC3=C2N=C2SC=C(c4ccccc4)N2C3c2ccc(C)cc2)cc1` (configuration not stated), on Acetylcholinesterase [2], the inhibition was found to be 45.7%.

Regarding `C(=C1CNCC2=C1N=C1SC=C(c3ccc4ccccc4c3)N1C2c1ccccc1)c1ccccc1` (configuration not stated), the inhibition at Acetylcholinesterase [2] was 41.8%.

Turning to `Cc1ccc(C2=CSC3=NC4=C(CNCC4=Cc4ccc(Cl)cc4)C(c4ccc(Cl)cc4)N23)cc1` (configuration not stated), the Activity entry in data set [1] was “Non-Toxic”. In addition, the inhibition at Acetylcholinesterase [2] was found to be 74.7%. Further, the IC50 on Acetylcholinesterase [3] was determined as 1090 nM. The like results for `Cc1ccc(C=C2CNCC3=C2N=C2SC=C(c4ccc5ccccc5c4)N2C3c2ccc(C)cc2)cc1` (configuration not stated) were, in that order, “Non-Toxic”, 69.6% and 980 nM. Take `Cc1cccc(CN2C/C(=C\c3ccccc3)C(=O)/C(=C/c3ccccc3)C2)c1`: the inhibition on Acetylcholinesterase [2] came to 63.1%. In addition, the IC50 at Acetylcholinesterase [3] turned out to be 3180 nM. The like results for `O=C1/C(=C/c2ccccc2)CN(Cc2ccc3ccccc3c2)C/C1=C\c1ccccc1` were, in that order, 67.9% and 1930 nM. The like results for `Cc1ccc(C=C2CNCC3=C2N=C2SC=C(c4ccc(Br)cc4)N2C3c2ccc(C)cc2)cc1` (configuration not stated) were, in that order, 64.6% and 2270 nM. Consider `Cc1ccc(/C=C2\CN(Cc3ccc4ccccc4c3)C/C(=C\c3ccc(C)cc3)C2=O)cc1`, for which, on Acetylcholinesterase [2], the inhibition was 72.6%. At Acetylcholinesterase [3], the IC50 is 1590 nM.

Take `Brc1ccc(C2=CSC3=NC4=C(CNCC4=Cc4ccccc4)C(c4ccccc4)N23)cc1` (configuration not stated): the inhibition on Acetylcholinesterase [2] was 48.7%.

Consider `O=C1/C(=C/c2ccc(Cl)cc2)CN(Cc2ccc3ccccc3c2)C/C1=C\c1ccc(Cl)cc1`, for which, on Acetylcholinesterase [2], the inhibition stood at 42.4%. Same read-out and setting: for `Brc1ccc(C=C2CNCC3=C2N=C2SC=C(c4ccc(Br)cc4)N2C3c2ccc(Br)cc2)cc1` (configuration not stated) the value was 48.3%.

Consider `Brc1ccc(C=C2CNCC3=C2N=C2SC=C(c4ccc5ccccc5c4)N2C3c2ccc(Br)cc2)cc1` (configuration not stated), for which the Activity entry in data set [1] is on record as “Non-Toxic”. The inhibition at Acetylcholinesterase [2] amounted to 65.7%. On Acetylcholinesterase [3], the IC50 worked out at 730 nM. As for `Cc1ccc(C=C2CNCC3=C2N=C2SC=C(c4ccc(C)cc4)N2C3c2ccc(C)cc2)cc1` (configuration not stated), the inhibition on Acetylcholinesterase [2] amounted to 60.4%. In addition, on Acetylcholinesterase [3], the IC50 was 1800 nM. As for `Cc1ccc(C2=CSC3=NC4=C(CNCC4=Cc4ccc(Br)cc4)C(c4ccc(Br)cc4)N23)cc1` (configuration not stated), the Activity entry in data set [1] is given as “Non-Toxic”. For the same molecule, at Acetylcholinesterase [2], the inhibition came out at 68.3%. The IC50 on Acetylcholinesterase [3] is 1010 nM.
